In the assay the target is T1, hGPR17L-V96M (Homo sapiens, UniProt Q13304, V96M).
T1 construct: host or cells: GLUTag cells, adenoviral transduction
The assay is described as follows: Calcium flux in GLUTag cells expressing hGPR17L-V96M. Format: cell-based. As to conditions: for Mean Diff. (Tukey's multiple comparisons test, Figure 4C): hGPR17L-V96M. The procedure:
GLUTag cells were maintained in Dulbecco’s Modified Eagle Medium (DMEM) supplemented with 10% fetal bovine serum and 1% penicillin–streptomycin in a humidified incubator at 37 °C and 5% CO2. For adenovirus transduction, GLUTag cells were seeded into poly-D-lysine coated 96-well plates or 4-chamber slides. The next day, cells were transduced with adenoviruses (100–1250 viral particles per cell at time of seeding) as indicated. After 24–30 h, adenovirus-containing media was changed to serum-free growth media for overnight serum starvation. The following day, GLUTag cells were used for cAMP or calcium signaling assays, GLP-1 secretion assays, or immunostaining and imaging.
GLUTag cells were seeded into black, clear bottom, poly-D-lysine-coated 96-well plates. Cells were transduced and serum starved as specified above. Growth medium was then replaced with 100 μL/well assay buffer (HBSS, 20 mM HEPES, pH 7.4) and 100 μL/well Calcium 6 loading dye (R8190; Molecular Devices, San Jose, CA, USA). During dye loading, cells were incubated at 37 °C and 5% CO2 for 2 h. MDL29,951 or KCl was added to the wells and fluorescence (485 nm excitation, 525 nm emission, and 515 nm automatic emission cutoff) was measured using a Molecular Devices FlexStation3 (Molecular Devices) at 37 °C. For experiments with PTX, cells were pretreated with 100 ng/mL PTX overnight and 100 ng/mL PTX was included with Calcium 6 loading dye for calcium flux assays. For experiments with YM-254890, cells were pretreated for 30 min at 37 °C.

T1 sequence (Q13304 whole entry V96M): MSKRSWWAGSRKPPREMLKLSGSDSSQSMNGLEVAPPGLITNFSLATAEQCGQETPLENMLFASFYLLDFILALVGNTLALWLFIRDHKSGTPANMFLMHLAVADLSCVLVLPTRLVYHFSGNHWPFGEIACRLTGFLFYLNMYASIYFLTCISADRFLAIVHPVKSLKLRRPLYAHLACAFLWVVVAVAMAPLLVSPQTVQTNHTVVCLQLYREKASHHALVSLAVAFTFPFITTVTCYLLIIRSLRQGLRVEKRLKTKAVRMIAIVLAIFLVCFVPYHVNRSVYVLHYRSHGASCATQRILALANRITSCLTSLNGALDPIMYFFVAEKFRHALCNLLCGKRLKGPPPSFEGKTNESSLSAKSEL

By EC50 is commonly meant the concentration needed to bring the measured effect to its halfway point. For `O=C(O)CCc1c(C(=O)O)[nH]c2cc(Cl)cc(Cl)c12` [MDL29,951], under “GLUTag hGPR17L-V96M”, the “maximal calcium stimulation, % of that observed for hGPR17L-WT” value amounted to 27 ± 1.5%. The “pEC50, calcium mobilization” value (GLUTag hGPR17L-V96M) was determined as 6.24 ± 0.07. Under “GLUTag hGPR17L-V96M, read-out: EC50, calcium mobilization”, the EC50 came to 580 nM. The “Mean Diff. (Tukey's multiple comparisons test, Figure 4C)” value is, setting by setting: (log [MDL29,951] (M) -4.5 vs. Vehicle) 27.53; (log [MDL29,951] (M) -5.0 vs. Vehicle) 24.23; (log [MDL29,951] (M) -5.5 vs. Vehicle) 21.87; (log [MDL29,951] (M) -6.0 vs. Vehicle) 17.65; (log [MDL29,951] (M) -6.4 vs. Vehicle) 11.95; (log [MDL29,951] (M) -6.9 vs. Vehicle) 4.328. The “Mean Diff. (Tukey's multiple comparisons test, Figure 4C)” value is reported as 1.581 (log [MDL29,951] (M) -7.4 vs. Vehicle), 0.8859 (log [MDL29,951] (M) -7.9 vs. Vehicle), 0.4181 (log [MDL29,951] (M) -8.3 vs. Vehicle) and -0.03776 (log [MDL29,951] (M) -8.8 vs. Vehicle).

The values above are taken from PMC11762167, “G Protein-Coupled Receptor 17 Inhibits Glucagon-like Peptide-1 Secretion via a Gi/o-Dependent Mechanism in Enteroendocrine Cells” (Biomolecules, 2024).
